Results reported in the supplement of paper PMC10307832.

Tests used:
Experiment in all cases: relative viability (nuclei count vs DMSO), 5 days (fraction); higher = more cells survive
KIN001-266 + Trametinib = compound: CCN1CCC(CC1)N2C=C(N=N2)CNC3=CC4=C(C(=CN=C4C(=C3)Cl)C#N)NC5=CC(=C(C=C5)F)Cl [KIN001-266] + CC(=O)Nc1cccc(-n2c(=O)n(C3CC3)c(=O)c3c(Nc4ccc(I)cc4F)n(C)c(=O)c(C)c32)c1 [Trametinib] (partner 0.02 µM)
Summary of the method: (§1)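 After 5 days of treatment, lung cancer cells in 1536-well plates were fixed and stained in a single step (final 0.05% Triton X-100, 1% formaldehyde, 1 ug/ml Hoechst) and their nuclei counted on 4× images. Treatment had been applied by pin tool the day after seeding as one drug alone or as a fixed anchor-drug dose with five library-drug doses (not always all listed) in √10 steps. Relative viability is the nuclei count of treated wells divided by that of vehicle wells, and values are medians of duplicate plates.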

KIN001-266 + Bortezomib = compound: CCN1CCC(CC1)N2C=C(N=N2)CNC3=CC4=C(C(=CN=C4C(=C3)Cl)C#N)NC5=CC(=C(C=C5)F)Cl [KIN001-266] + CC(C)C[C@H](NC(=O)[C@H](Cc1ccccc1)NC(=O)c1cnccn1)B(O)O [Bortezomib] (partner 0.002 µM)
Summary of the method: as §1

KIN001-266 + Pictilisib = compound: CCN1CCC(CC1)N2C=C(N=N2)CNC3=CC4=C(C(=CN=C4C(=C3)Cl)C#N)NC5=CC(=C(C=C5)F)Cl [KIN001-266] + CS(=O)(=O)N1CCN(Cc2cc3nc(-c4cccc5[nH]ncc45)nc(N4CCOCC4)c3s2)CC1 [Pictilisib] (partner 1 µM)
Summary of the method: as §1

KIN001-266 + Olaparib = compound: CCN1CCC(CC1)N2C=C(N=N2)CNC3=CC4=C(C(=CN=C4C(=C3)Cl)C#N)NC5=CC(=C(C=C5)F)Cl [KIN001-266] + O=C(c1cc(Cc2n[nH]c(=O)c3ccccc23)ccc1F)N1CCN(C(=O)C2CC2)CC1 [Olaparib] (partner 8 µM)
Summary of the method: as §1

| Cell Line | relative viability (KIN001-266 + Trametinib; first compound 0.08 µM) | relative viability (KIN001-266 + Trametinib; first compound 0.253 µM) | relative viability (KIN001-266 + Trametinib; first compound 0.8 µM) | relative viability (KIN001-266 + Trametinib; first compound 2.53 µM) | relative viability (KIN001-266 + Trametinib; first compound 8 µM) | relative viability (KIN001-266 + Bortezomib; first compound 0.08 µM) | relative viability (KIN001-266 + Bortezomib; first compound 0.253 µM) | relative viability (KIN001-266 + Bortezomib; first compound 0.8 µM) | relative viability (KIN001-266 + Bortezomib; first compound 2.53 µM) | relative viability (KIN001-266 + Bortezomib; first compound 8 µM) | relative viability (KIN001-266 + Pictilisib; first compound 0.08 µM) | relative viability (KIN001-266 + Pictilisib; first compound 0.253 µM) | relative viability (KIN001-266 + Pictilisib; first compound 0.8 µM) | relative viability (KIN001-266 + Pictilisib; first compound 2.53 µM) | relative viability (KIN001-266 + Pictilisib; first compound 8 µM) | relative viability (KIN001-266 + Olaparib; first compound 0.08 µM) | relative viability (KIN001-266 + Olaparib; first compound 0.253 µM) | relative viability (KIN001-266 + Olaparib; first compound 0.8 µM) | relative viability (KIN001-266 + Olaparib; first compound 2.53 µM) | relative viability (KIN001-266 + Olaparib; first compound 8 µM) |
| --- | --- | --- | --- | --- | --- | --- | --- | --- | --- | --- | --- | --- | --- | --- | --- | --- | --- | --- | --- | --- |
| HARA | 0.634 | 0.868 | 0.91 | 0.858 | 0.424 | 1.07 | 1.09 | 1.16 | 1.07 | 1.04 | 0.515 | 0.466 | 0.507 | 0.444 | 0.291 | 0.798 | 0.762 | 0.806 | 0.559 | 0.467 |
| HCC-15 | 0.413 | 0.392 | 0.388 | 0.344 | 0.328 | 1.01 | 1.04 | 0.868 | 0.864 | 0.662 | 0.769 | 0.765 | 0.594 | 0.674 | 0.472 | 0.743 | 0.747 | 0.64 | 0.651 | 0.511 |
| HCC-44 | 1.13 | 1.06 | 1.07 | 1.07 | 1.16 | 0.944 | 0.867 | 0.815 | 0.852 | 0.864 | 0.657 | 1.76 | 0.593 | 0.636 | 0.57 | 0.994 | 0.959 | 0.944 | 0.884 | 0.993 |
| IA-LM | – | – | – | – | – | 0.838 | 0.729 | 0.94 | 0.736 | 0.674 | 0.336 | 0.364 | 0.274 | 0.348 | 0.317 | 0.884 | 0.791 | 0.845 | 0.853 | 0.625 |
| LK-2 | 0.891 | 0.781 | 0.877 | 0.847 | 0.721 | – | – | – | – | – | 0.563 | – | 0.537 | – | 0.551 | 0.879 | 0.689 | 0.672 | 0.557 | 0.574 |
| NCI-H358 | 0.174 | 0.17 | 0.138 | 0.115 | 0.117 | – | – | – | – | – | 0.382 | 0.355 | 0.343 | 0.3 | 0.316 | 0.6 | 0.556 | 0.58 | 0.458 | 0.325 |
| NCI-H522 | 0.78 | 0.907 | 0.797 | 0.638 | 0.706 | – | – | – | – | – | – | – | – | – | – | 0.672 | 0.785 | 0.665 | 0.559 | 0.483 |
| NCI-H1299 | – | – | – | – | – | 1.02 | 1.01 | 0.984 | 0.962 | 0.882 | 0.98 | 0.754 | 0.893 | 0.75 | 0.424 | 0.941 | 1.03 | 0.933 | 0.859 | 0.775 |
| NCI-H1395 | 1.02 | 1.11 | 1.08 | 0.925 | 0.985 | – | – | – | – | – | 0.693 | 0.843 | 0.614 | 0.522 | 0.575 | 0.478 | 0.441 | 0.447 | 0.429 | 0.427 |
| NCI-H1563 | – | – | – | – | – | 0.951 | 0.982 | 0.846 | 0.855 | 0.809 | 0.662 | 0.636 | 0.636 | 0.656 | 0.677 | – | – | – | – | – |
| NCI-H1648 | 0.564 | 0.508 | 0.552 | 0.46 | 0.61 | – | – | – | – | – | – | – | – | – | – | 1 | 0.711 | 0.816 | 0.55 | 0.996 |
| NCI-H1703 | – | – | – | – | – | 0.378 | 0.317 | 0.296 | 0.273 | 0.291 | 0.287 | 0.23 | 0.234 | 0.211 | 0.223 | 0.451 | 0.386 | 0.435 | 0.391 | 0.401 |
| NCI-H1793 | 0.436 | 0.452 | – | 0.39 | 0.299 | – | – | – | – | – | 0.287 | 0.332 | 0.305 | 0.253 | 0.322 | 0.864 | 0.823 | – | 0.923 | 0.711 |
| NCI-H1944 | 0.419 | 0.401 | 0.324 | 0.393 | 0.41 | – | – | – | – | – | 0.363 | 0.363 | 0.333 | 0.356 | 0.352 | 0.411 | 0.403 | 0.346 | 0.411 | 0.326 |
| NCI-H2170 | 0.969 | 0.872 | 0.96 | 0.934 | 0.822 | – | – | – | – | – | 0.372 | 0.392 | 0.344 | 0.296 | 0.3 | 0.634 | 0.548 | 0.541 | 0.515 | 0.416 |
| NCI-H2342 | 0.922 | 0.868 | 0.848 | 1.01 | 1.22 | – | – | – | – | – | – | – | – | – | – | 0.547 | 0.4 | 0.427 | 0.407 | 0.419 |
| SK-MES-1 | 0.564 | 0.562 | 0.551 | 0.522 | 0.47 | – | – | – | – | – | 0.304 | 0.351 | 0.37 | 0.408 | 0.316 | 0.783 | 0.651 | 0.73 | 0.492 | 0.492 |
| SW 900 | 0.83 | 0.727 | 1.02 | 0.812 | 0.324 | – | – | – | – | – | – | – | – | – | – | 0.964 | 0.88 | 0.877 | 0.821 | 0.335 |
